Source: paper PMC4033646 (ACS Chemical Biology, 2014)

Target: (α4)2(β2)3 nAChR (A2B3, high affinity) (Rattus norvegicus, UniProt P09483+P12390, P09483:H144V/P09483:Q152F/P09483:T154L)
Test: two-electrode voltage clamp, Xenopus oocytes, agonist dose-response
Type: cell-based
Details: -60 mV, ND96 Ca2+ free, pH 7.5

Chain of (α4)2(β2)3 nAChR (A2B3, high affinity) (P12390 25-500): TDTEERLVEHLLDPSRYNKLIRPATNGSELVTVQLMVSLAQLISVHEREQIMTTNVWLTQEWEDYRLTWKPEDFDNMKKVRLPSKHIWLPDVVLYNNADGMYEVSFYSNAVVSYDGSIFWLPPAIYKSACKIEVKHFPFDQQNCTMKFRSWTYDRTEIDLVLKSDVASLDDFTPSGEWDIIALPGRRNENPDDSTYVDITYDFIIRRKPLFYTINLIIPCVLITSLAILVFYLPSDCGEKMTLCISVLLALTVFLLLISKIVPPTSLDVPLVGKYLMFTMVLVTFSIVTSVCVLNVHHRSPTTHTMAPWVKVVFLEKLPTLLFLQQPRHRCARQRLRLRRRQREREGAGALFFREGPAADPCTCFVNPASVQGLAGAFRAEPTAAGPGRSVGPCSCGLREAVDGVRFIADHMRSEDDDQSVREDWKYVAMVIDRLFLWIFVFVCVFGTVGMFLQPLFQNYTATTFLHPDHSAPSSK
Chain of (α4)2(β2)3 nAChR (A2B3, high affinity) (P09483 31-630 H144V/Q152F/T154L): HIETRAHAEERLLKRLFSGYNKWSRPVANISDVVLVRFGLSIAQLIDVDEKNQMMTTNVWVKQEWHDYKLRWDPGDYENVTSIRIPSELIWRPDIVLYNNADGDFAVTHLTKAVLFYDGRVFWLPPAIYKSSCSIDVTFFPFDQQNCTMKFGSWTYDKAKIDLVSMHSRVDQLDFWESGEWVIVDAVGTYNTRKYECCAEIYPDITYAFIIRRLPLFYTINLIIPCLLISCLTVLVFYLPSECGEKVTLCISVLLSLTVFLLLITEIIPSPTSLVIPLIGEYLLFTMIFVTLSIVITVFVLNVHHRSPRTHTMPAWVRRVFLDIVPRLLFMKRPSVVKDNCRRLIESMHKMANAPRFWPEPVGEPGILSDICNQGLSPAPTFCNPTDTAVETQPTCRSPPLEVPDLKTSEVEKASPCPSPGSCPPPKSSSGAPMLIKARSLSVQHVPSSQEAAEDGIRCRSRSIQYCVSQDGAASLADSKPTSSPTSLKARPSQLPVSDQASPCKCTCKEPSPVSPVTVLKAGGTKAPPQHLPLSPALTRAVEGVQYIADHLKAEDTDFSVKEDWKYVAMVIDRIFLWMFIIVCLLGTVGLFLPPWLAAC

Which EC50 does the source give for `OCCCCC#Cc1cncc(OC[C@@H]2CCN2)c1` [sazetidine-A] here?
Its EC50 is 4.8 ± 0.3 nM.
